Experimental data: patent US20230364025A1, “PROTEIN-RELEASE SYSTEM FOR SUSTAINED RELEASE OF PROTEINS” (THE GOVERNING COUNCIL OF THE UNIVERSITY OF TORONTO, priority 2022, published 2023)

How the values were obtained:
[1] = target: hlgG1 (Homo sapiens, UniProt P01857); conditions: interacting with hlgG1; Reese et al., 2020; cited from earlier work
[2] = target: T1, Fc-Noggin (Mus musculus, UniProt P97466); assay: Bio-layer interferometry binding of immobilized Fc-ligands to Fc-Noggin; conditions: biotinylated peptide immobilized at 100 nM on SAX biosensors
T1 construct: Fc (immunoglobulin Fc region); purchased R&D systems
Protocol: (§1) Binding kinetic measurements were performed on the Octet RED96 system (ForteBio, CA) using single-use high-precision streptavidin biosensors (SAX). Assay buffer was defined as 1×PBS comprising 0.05% Tween-20 (PBST). Biotinylated peptides FcL-1 and FcL-2 were immobilized at 100 nM. Non-specific interactions were minimized by including a blocking step using SuperBlock prior to each baseline response. […] A double-referencing experiment was used to assess the binding interactions of Fc-noggin to both peptides. Peptides were immobilized in sample sensors while reference sensors were dipped in assay buffer. For association, the sample and reference sensors were dipped into Fc-noggin. All experiments included one biosensor dipped in assay buffer during association for background normalization.
(§2) Affinity interactions of the modified peptide ligands to different antibodies were evaluated via bio-layer interferometry. […] Dissociation constants between the binding pairs were determined using the Octet Data Analysis Software. […] A heterogeneous 2:1 ligand binding model was used for the evaluation of the equilibrium dissociation constants of the chosen peptide ligands to anti-sFRP2 or Fc-Noggin.

[3] = test system: panitumumab; assay: Bio-layer interferometry binding of immobilized Fc-ligands to panitumumab; conditions: biotinylated peptide immobilized at 100 nM on SAX biosensors
Protocol: as §1, §2

[4] = test system: anti-sFRP2; assay: Bio-layer interferometry binding of immobilized Fc-ligands to anti-sFRP2; conditions: biotinylated peptide immobilized at 100 nM on SAX biosensors
Protocol: as §1, §2

[5] = test system: bevacizumab; assay: Bio-layer interferometry binding of immobilized Fc-ligands to bevacizumab; conditions: biotinylated peptide immobilized at 100 nM on SAX biosensors
Protocol: as §1, §2

[6] = In vitro controlled release of proteins from HAKT-oxime gels, quantified by ELISA; assay type: physicochemical; conditions: for cumulative release: after 2 days
Protocol: HAKT and HAKT-FcL-1 were dissolved in PBS to yield a final HA content of 12.5 mg/mL with 0 or 100 molar excesses of peptide to protein and mixed with PEGOA4 at 80 mol %. […] Release media was defined as 1×PBS comprising 0.1 wt % bovine serum albumin and Roche cOmplete™ Protease Inhibitor Cocktail (1 tablet/ 10 mL, Roche, Switzerland). Protein release was evaluated by incubating HAKT-oxime gels with 400 μL of release media on an orbital shaker at 37° C. Supernatants were collected and replaced with fresh release media after 2 h, 6 h, 1 d, 2 d, 3 d, 5 d, and 7 d. HAKT-oxime hydrogels were digested after the last time point using 500 IU/mL hyaluronidase in 400 μL of PBS. Fc-Noggin concentrations were evaluated using a mouse Noggin ELISA (RayBiotech).
Subsequently, the wells were washed with 200 μL TPBS (1× PBS with 0.05% Tween 20) four times and blotted dry on paper towels. Standard and analyte samples were added to each well (100 μL) and incubated for 2.5 h at room temperature on an orbital shaker. The wells were then washed as previously described and blotted dry. […] 100 μL of anti-Fc antibody diluted at appropriate concentrations was added to each well and incubated for 1.5 h at room temperature. A solution of 3,3′,5,5′-Tetramethylbenzidine (TMB) was added (100 ul) to each well. […] Then, a stop solution comprising 2N H2SO4 (50 μL) was added to each well and the absorbance was measured at 450 nm. Protein concentration was determined using the linear range in the standard curve. Protein samples were diluted to fit within the linear range.

T1 sequence (P97466 with tags, fused parts or gaps): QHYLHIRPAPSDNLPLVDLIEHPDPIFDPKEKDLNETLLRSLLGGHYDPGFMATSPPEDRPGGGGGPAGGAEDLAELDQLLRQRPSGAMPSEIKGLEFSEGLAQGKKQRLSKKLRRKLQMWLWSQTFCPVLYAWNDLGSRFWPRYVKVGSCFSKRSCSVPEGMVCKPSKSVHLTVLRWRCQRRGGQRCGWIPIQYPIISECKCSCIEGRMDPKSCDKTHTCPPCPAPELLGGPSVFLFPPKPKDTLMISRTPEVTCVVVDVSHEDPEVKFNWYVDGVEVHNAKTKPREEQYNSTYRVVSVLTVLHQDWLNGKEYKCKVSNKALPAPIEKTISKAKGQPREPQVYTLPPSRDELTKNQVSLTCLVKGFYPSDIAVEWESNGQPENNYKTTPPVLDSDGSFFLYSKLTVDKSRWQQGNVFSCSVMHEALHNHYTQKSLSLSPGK
hlgG1, sequence (P01857 1-328 limits assumed): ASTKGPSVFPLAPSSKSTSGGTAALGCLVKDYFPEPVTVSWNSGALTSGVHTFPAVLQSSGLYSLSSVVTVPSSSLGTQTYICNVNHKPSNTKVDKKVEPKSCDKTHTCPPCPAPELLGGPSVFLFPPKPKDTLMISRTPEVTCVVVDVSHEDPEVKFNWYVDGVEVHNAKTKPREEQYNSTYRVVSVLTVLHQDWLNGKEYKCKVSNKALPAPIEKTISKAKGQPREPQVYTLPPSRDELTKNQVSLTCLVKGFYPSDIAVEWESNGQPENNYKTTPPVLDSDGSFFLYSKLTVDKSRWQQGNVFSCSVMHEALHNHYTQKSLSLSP

Row | Compound | Kd [1] [µM] | binding to Fc-Noggin [2] | binding to panitumumab [3] | binding to anti-sFRP2 [4] | binding to bevacizumab [5] | controlled release from HAKT-gel ([6]; FcL-1 at 100-fold molar excess vs no peptide, 37° C., 7 days) | cumulative release ([6]; from HAKT-FcL1-oxime) [%] | cumulative release ([6]; from HAKT-oxime (no peptide))
1 | HWRWGV | 14.2 | – | – | – | – | – | – | –
2 | (CFHH)2KGAKSKG [FcL2] | – | demonstrated binding only to anti-sFRP2 | demonstrated binding only to anti-sFRP2 | demonstrated binding only to anti-sFRP2 | demonstrated binding only to anti-sFRP2 | – | – | –
3 | CC(C)[C@H](NC(=O)[C@H](Cc1c[nH]c2ccccc12)NC(=O)CNC(=O)[C@H](CCCNC(=N)N)NC(=O)[C@H](Cc1c[nH]c2ccccc12)NC(=O)[C@@H](N)Cc1c[nH]cn1)C(=O)NCC(=O)N[C@@H](C)C(=O)N[C@@H](CCCCNC(=O)CCCC[C@@H]1SC[C@@H]2NC(=O)N[C@@H]21)C(=O)N[C@@H](CO)C(=O)N[C@@H](CCCCN)C(=O)NCC(=O)O [FcL1] | – | shown to bind | shown to bind | shown to bind | shown to bind | – | – | –
4 | bevacizumab: antibody against VEGF; Research Grade Bevacizumab Biosimilar | – | – | – | – | – | confirmed controlled release | 60 | approximately 100%
